Laboratory results as given in patent US20250333424A1, “ANTIVIRAL COMPOUNDS” (Gilead Sciences, Inc., priority 2024, published 2025).

What follows are compounds tested on monocytic THP1 cells infected with HIV VSV-G pseudotyped GFP-NEF reporter virus (assay: cells). Details: Human immunodeficiency virus 1, THP-1, 24 h.
Type: cell-based

How did the EC50 turn out when `Cc1cc(/C=C/C#N)cc(C)c1Oc1nc(NC23CC(C#N)(C2)C3)nc2c1C(OCC(F)F)NC2=O` (centres unmarked) [Compound 289, (E)-3-((4-(4-(2-cyanovinyl)-2,6-dimethylphenoxy)-5-(2,2-difluoroethoxy)-7-oxo-6,7-dihydro-5H-pyrrolo[3,4-d]pyrimidin-2-yl)amino)bicyclo[1.1.1]pentane-1-carbonitrile] was run?
The EC50 was 52.9 nM.

Which EC50 does the source give for `Cc1cc(/C=C/C#N)cc(C)c1Oc1nc(NC23CC(C#N)(C2)C3)nc2c(=O)n(C)[nH]c12` [Compound 290, (E)-3-((7-(4-(2-cyanovinyl)-2,6-dimethylphenoxy)-2-methyl-3-oxo-2,3-dihydro-1H-pyrazolo[4,3-d]pyrimidin-5-yl)amino)bicyclo[1.1.1]pentane-1-carbonitrile] here?
Its EC50 is 387 nM.

How did the EC50 turn out when `Cc1cc(/C=C/C#N)cc(C)c1Oc1nc(NC23CC(C#N)(C2)C3)nc2c(=O)n(C)n(C)c12` [Compound 291, (E)-3-((7-(4-(2-cyanovinyl)-2,6-dimethylphenoxy)-1,2-dimethyl-3-oxo-2,3-dihydro-1H-pyrazolo[4,3-d]pyrimidin-5-yl)amino)bicyclo[1.1.1]pentane-1-carbonitrile] was run?
The EC50 was 31.1 nM.

`Cc1cc(/C=C/C#N)cc(C)c1Oc1nc(NC23CC(C#N)(C2)C3)nc2c(=O)n(C)n(C(F)F)c12` [Compound 292, (E)-3-((7-(4-(2-cyanovinyl)-2,6-dimethylphenoxy)-1-(difluoromethyl)-2-methyl-3-oxo-2,3-dihydro-1H-pyrazolo[4,3-d]pyrimidin-5-yl)amino)bicyclo[1.1.1]pentane-1-carbonitrile] was tested. Which EC50 did it give?
Its EC50 is 58.8 nM.

With `COc1n[nH]c2c(Oc3c(C)cc(/C=C/C#N)cc3C)nc(NC34CC(C#N)(C3)C4)nc12` [Compound 293, (E)-3-((7-(4-(2-cyanovinyl)-2,6-dimethylphenoxy)-3-methoxy-1H-pyrazolo[4,3-d]pyrimidin-5-yl)amino)bicyclo[1.1.1]pentane-1-carbonitrile] as the compound, how does the EC50 read?
Its EC50 is 56.3 nM.

`CCOc1nn(CC)c2c(Oc3c(C)cc(/C=C/C#N)cc3C)nc(NC34CC(C#N)(C3)C4)nc12` [Compound 294, (E)-3-((7-(4-(2-cyanovinyl)-2,6-dimethylphenoxy)-3-ethoxy-1-ethyl-1H-pyrazolo[4,3-d]pyrimidin-5-yl)amino)bicyclo[11.1.1]pentane-1-carbonitrile] was tested. Which EC50 did it give?
Its EC50 is 23.3 nM.

With `Cc1cc(/C=C/C#N)cc(C)c1Oc1nc(NC23CC(C#N)(C2)C3)nc2c(=O)n3n(c12)CCC3` [Compound 295, (E)-3-((4-(4-(2-cyanovinyl)-2,6-dimethylphenoxy)-10-oxo-7,8-dihydro-6H,10H-pyrazolo[1′,2′:1,2]pyrazolo[4,3-d]pyrimidin-2-yl)amino)bicyclo[1.1.1]pentane-1-carbonitrile] as the compound, how does the EC50 read?
Its EC50 is 55.3 nM.

How did the EC50 turn out when `Cc1cc(/C=C/C#N)cc(C)c1Oc1nc(NC23CC(C#N)(C2)C3)nc2snc(C)c12` [Compound 296, (E)-3-((4-(4-(2-cyanovinyl)-2,6-dimethylphenoxy)-3-methylisothiazolo[5,4-d]pyrimidin-6-yl)amino)bicyclo[1.1.1]pentane-1-carbonitrile] was run?
The EC50 was 59.5 nM.

Which EC50 does the source give for `Cc1cc(/C=C/C#N)cc(C)c1Oc1nc(NC23CC(C#N)(C2)C3)nc2c1c(C)n[s+]2[O-]` (centres unmarked) [Compound 297, (E)-3-((4-(4-(2-cyanovinyl)-2,6-dimethylphenoxy)-3-methyl-1-oxidoisothiazolo[5,4-d]pyrimidin-6-yl)amino)bicyclo[1.1.1]pentane-1-carbonitrile] here?
Its EC50 is 159 nM.

`CCOc1nc2nc(NC34CC(C#N)(C3)C4)nc(Oc3c(C)cc(/C=C/C#N)cc3C)c2n1C` [Compound 298, (E)-3-((6-(4-(2-cyanovinyl)-2,6-dimethylphenoxy)-8-ethoxy-7-methyl-7H-purin-2-yl)amino)bicyclo[1.1.1]pentane-1-carbonitrile] was tested. Which EC50 did it give?
The EC50 was 87.3 nM.

How did the EC50 turn out when `Cc1cc(/C=C/C#N)cc(C)c1Oc1nc(NC23CC(C#N)(C2)C3)nc2nn3ccccc3c12` [Compound 299, (E)-3-((4-(4-(2-cyanovinyl)-2,6-dimethylphenoxy)pyrido[1′,2′:1,5]pyrazolo[3,4-d]pyrimidin-2-yl)amino)bicyclo[1.1.1]pentane-1-carbonitrile] was run?
Its EC50 is 40.1 nM.

For `Cc1cc(/C=C/C#N)cc(C)c1Oc1nc(NC23CC(C#N)(C2)C3)nc2occ(C)c12` [Compound 300, (E)-3-((4-(4-(2-cyanovinyl)-2,6-dimethylphenoxy)-5-methylfuro[2,3-d]pyrimidin-2-yl)amino)bicyclo[1.1.1]pentane-1-carbonitrile], which EC50 is on record?
Its EC50 is 87.6 nM.

How did the EC50 turn out when `Cc1cc(/C=C/C#N)cc(C)c1Oc1nc(NC23CC(C#N)(C2)C3)nc2nn3c(c12)OCCC3` [Compound 301, (E)-3-((4-(4-(2-cyanovinyl)-2,6-dimethylphenoxy)-7,8-dihydro-6H-pyrimido[4′,5′:3,4]pyrazolo[5,1-b][1,3]oxazin-2-yl)amino)bicyclo[1.1.1]pentane-1-carbonitrile] was run?
The EC50 was 50.7 nM.

How did the EC50 turn out when `Cc1cc(/C=C/C#N)cc(C)c1Oc1nc(NC23CC(C#N)(C2)C3)nc2[nH]cc(C)c12` [Compound 302, (E)-3-((4-(4-(2-cyanovinyl)-2,6-dimethylphenoxy)-5-methyl-7H-pyrrolo[2,3-d]pyrimidin-2-yl)amino)bicyclo[1.1.1]pentane-1-carbonitrile] was run?
Its EC50 is 211 nM.

Which EC50 does the source give for `Cc1cc(/C=C/C#N)cc(C)c1Oc1nc(NC23CC(C#N)(C2)C3)nc2[nH]c(C)c(C)c12` [Compound 303, (E)-3-((4-(4-(2-cyanovinyl)-2,6-dimethylphenoxy)-5,6-dimethyl-7H-pyrrolo[2,3-d]pyrimidin-2-yl)amino)bicyclo[1.1.1]pentane-1-carbonitrile] here?
Its EC50 is 232 nM.

`Cc1cc(/C=C/C#N)cc(C)c1Oc1nc(NC23CC(C#N)(C2)C3)nc2nn(CC#N)cc12` [Compound 304, (E)-3-((2-(cyanomethyl)-4-(4-(2-cyanovinyl)-2,6-dimethylphenoxy)-2H-pyrazolo[3,4-d]pyrimidin-6-yl)amino)bicyclo[1.1.1]pentane-1-carbonitrile] was tested. Which EC50 did it give?
The EC50 was 107 nM.

How did the EC50 turn out when `Cc1cc(/C=C/C#N)cc(C)c1Oc1nc(NC23CC(C#N)(C2)C3)nc2nn(CCO)cc12` [Compound 305, (E)-3-((4-(4-(2-cyanovinyl)-2,6-dimethylphenoxy)-2-(2-hydroxyethyl)-2H-pyrazolo[3,4-d]pyrimidin-6-yl)amino)bicyclo[1.1.1]pentane-1-carbonitrile] was run?
The EC50 was 45 nM.

For `Cc1cc(/C=C/C#N)cc(C)c1Oc1nc(NC23CC(C#N)(C2)C3)nc2c1C1(C)O[C@H](C)CN1C2=O` (stereo partly drawn) [Compound 308, 3-(((6R)-4-(4-((E)-2-cyanovinyl)-2,6-dimethylphenoxy)-4b,6-dimethyl-9-oxo-4b,6,7,9-tetrahydrooxazolo[3′,2′:1,5]pyrrolo[3,4-d]pyrimidin-2-yl)amino)bicyclo[1.1.1]pentane-1-carbonitrile], which EC50 is on record?
The EC50 was 60.1 nM.

With `Cc1cc(/C=C/C#N)cc(C)c1Oc1nc(NC23CC(C#N)(C2)C3)nc2c1[C@H](C)N(c1cnn(C)c1)C2=O` [Compound 312, (S,E)-3-((4-(4-(2-cyanovinyl)-2,6-dimethylphenoxy)-5-methyl-6-(1-methyl-1H-pyrazol-4-yl)-7-oxo-6,7-dihydro-5H-pyrrolo[3,4-d]pyrimidin-2-yl)amino)bicyclo[1.1.1]pentane-1-carbonitrile] as the compound, how does the EC50 read?
Its EC50 is 15.1 nM.

With `Cc1cc(/C=C/C#N)cc(C)c1Oc1nc(NC23CC(C#N)(C2)C3)nc2c1[C@@H](C)N(c1cnn(C)c1)C2=O` [Compound 313, (R,E)-3-((4-(4-(2-cyanovinyl)-2,6-dimethylphenoxy)-5-methyl-6-(1-methyl-1H-pyrazol-4-yl)-7-oxo-6,7-dihydro-5H-pyrrolo[3,4-d]pyrimidin-2-yl)amino)bicyclo[1.1.1]pentane-1-carbonitrile] as the compound, how does the EC50 read?
Its EC50 is 468 nM.

`Cc1cc(/C=C/C#N)cc(C)c1Oc1nc(NC23CC(C#N)(C2)C3)nc2c1C1(C)OCCCN1C2=O` (centres unmarked) [Compound 314, (E)-3-((4-(4-(2-cyanovinyl)-2,6-dimethylphenoxy)-4b-methyl-10-oxo-4b,7,8,10-tetrahydro-6H-pyrimido[5′,4′:3,4]pyrrolo[2,1-b][1,3]oxazin-2-yl)amino)bicyclo[1.1.1]pentane-1-carbonitrile] was tested. Which EC50 did it give?
The EC50 was 25.3 nM.

With `Cc1cc(/C=C/C#N)cc(C)c1Oc1nc(NC23CC(C#N)(C2)C3)nc2c1C(C)N(CC#N)C2=O` (centres unmarked) [Compound 315, (E)-3-((6-(cyanomethyl)-4-(4-(2-cyanovinyl)-2,6-dimethylphenoxy)-5-methyl-7-oxo-6,7-dihydro-5H-pyrrolo[3,4-d]pyrimidin-2-yl)amino)bicyclo[1.1.1]pentane-1-carbonitrile] as the compound, how does the EC50 read?
Its EC50 is 188 nM.

Which EC50 does the source give for `Cc1cc(/C=C/C#N)cc(C)c1Oc1nc(NC23CC(C#N)(C2)C3)nc2c1C(C)(O)N(CC#N)C2=O` (centres unmarked) [Compound 316, (E)-3-((6-(cyanomethyl)-4-(4-(2-cyanovinyl)-2,6-dimethylphenoxy)-5-hydroxy-5-methyl-7-oxo-6,7-dihydro-5H-pyrrolo[3,4-d]pyrimidin-2-yl)amino)bicyclo[1.1.1]pentane-1-carbonitrile] here?
The EC50 was 77.5 nM.

`CCc1cc(/C=C/C#N)cc(Cl)c1Oc1nc(NC23CC(C#N)(C2)C3)nc2[nH]nc(C)c12` [Example 1, (E)-3-((4-(2-chloro-4-(2-cyanovinyl)-6-ethylphenoxy)-3-methyl-1H-pyrazolo[3,4-d]pyrimidin-6-yl)amino)bicyclo[1.1.1]pentane-1-carbonitrile] was tested. Which EC50 did it give?
The EC50 was 46.7 nM.

How did the EC50 turn out when `Cc1cc(/C=C/C#N)cc(C)c1Oc1nc(NC23CC(C#N)(C2)C3)nc2c1C1(C)OCC3(CCC3)CN1C2=O` (centres unmarked) [Example 198, (E)-3-((4′-(4-(2-cyanovinyl)-2,6-dimethylphenoxy)-4b′-methyl-10′-oxo-4b′,10′-dihydro-6′H,8′H-spiro[cyclobutane-1,7′-pyrimido[5′,4′:3,4]pyrrolo[2,1-b][1,3]oxazin]-2′-yl)amino)bicyclo[1.1.1]pentane-1-carbonitrile] was run?
The EC50 was 115 nM.

Which EC50 does the source give for `Cc1cc(/C=C/C#N)cc(C)c1Oc1nc(NC23CC(C#N)(C2)C3)nc2c1C1(C)OCC3(COC3)CN1C2=O` (centres unmarked) [Example 199, (E)-3-((4′-(4-(2-cyanovinyl)-2,6-dimethylphenoxy)-4b′-methyl-10′-oxo-4b′,10′-dihydro-6′H,8′H-spiro[oxetane-3,7′-pyrimido[5′,4′:3,4]pyrrolo[2,1-b][1,3]oxazin]-2′-yl)amino)bicyclo[1.1.1]pentane-1-carbonitrile] here?
Its EC50 is 49 nM.
